Data on 1 compound can be found in US6296873A, “Zero-order sustained release delivery system for carbamazephine derivatives” (Yissum Research Development Company of the Hebrew …, priority 2000, dated 2001).

≈ marks a conversion by molar mass, not a printed value. Read-outs that look alike come from different tables or passages of the source.

Data set [1] in a line: Degree of conversion of anhydrous carbamazepine to carbamazepine dihydrate in suspension (DSC). Format: physicochemical. The protocol:
Suspensions of carbamazepine (5% w/v) containing water or 1% SDS aqueous solution were shaken at 37° C. with stirring (50 rpm). Samples from the sediment were taken after 1 day, dried at room temperature for 2 days, and analyzed by differential scanning calorimetry, X-ray powder diffraction and scanning electron microscopy (SEM). Carbamazepine anhydrous powder was analyzed using the same methods.
(§1) Analysis of carbamazepine in HPMC solutions and in dry mixtures of HPMC was performed. Suspension of carbamazepine (5% w/v) containing 1% SDS aqueous solution with Methocel K4M at different concentrations, namely 0.5, 1, 2, 5 and 10 mg,/ml were shaken for 1-7 days at 37° C. with stirring (50 rpm). Samples from the sediment were taken, at various time intervals, dried at room temperature for 2 days and analyzed by DSC, X-ray powder diffraction and SEM.
The degree of conversion of anhydrous carbamazepine to the dihydrate form, measured by DSC, was calculated according to the ratio obtained from the dehydration enthalpies of carbamazepine suspended in 1% SDS aqueous Methocel solution and 1% SDS aqueous solution without Methocel. Dry mixtures containing different ratios of HPMC (Methocel K4M) and carbamazepine were also analyzed by DSC in order to investigate the influence of HPMC on the polymorphic transformation of carbamazepine.
(§2) The thermal analysis of the samples was performed using a Differential Scanning Calorimeter (DSC, Mettler TA4000 with measuring cell DSC 30E, Switzerland). Samples were measured into aluminum pans. Lids were crimped and holes were made in lids in order to allow dehydration of samples. The thermal behavior of the samples was studied under nitrogen purge at heating rates of 10° C. min^-1 over a temperature range of 0° C. to 250° C. When the glass transition temperature of HPMC was examined the heating rate was 0.5° C. min^-1.

A short description of data set [2]: Solubility of carbamazepine in medium. Format: physicochemical. The conditions noted are these: read-out: Drug solubility. The source says:
Results are seen in FIG. 12.

Data set [3] in a line: Crystal morphology and structure of carbamazepine from HPMC solutions (SEM, X-ray diffraction). Format: physicochemical. To be noted: for X-ray diffraction: crystal form of carbamazepine: 1 day. As for the experimental part: as §1
(§3) X-ray powder diffraction of the samples was recorded by Philips automated diffractometer using Cu-K α radiation (40 kV, 35 mA) at a scanning rate of 0.5° per 20 min^-1.
Samples of hydrated tablets were sliced across the gel layer. The samples were washed and then treated with increasing concentration of ethanol, 5 minutes at each concentration, for dehydration. In order to complete the dehydration the samples were transferred in solution of freon 113:ethanol with increasing concentrations of freon (25, 50, 75, 100%). The samples with 100% freon were incubated in the hood for 0.5 hour. The cross-sectioned tablets were mounted on stubs and coated with a polaron sputter coater, Model E5100. The film thickness obtained was approximately 75 Å. Scanning electron photomicrographs were recorded using a Philips 505 SEM, applying voltage of […]. Samples of powders were coated and analyzed under the same conditions described for the hydrated tablets.

The conditions of data set [4]: after 1 hour, in the presence of water; cited from earlier work.
For data set [5] the following is noted: anhydrous carbamazepine; cited from earlier work.
A short description of data set [6]: Crystal morphology and structure of carbamazepine in the gel layer of hydrated tablets (DSC, X-ray, SEM). In kind it is physicochemical. To be noted: for SEM: form of carbamazepine in the gel layer: 50% Methocel K4M. The protocol: Gel layers of the tablets were analyzed. Tablets were hydrated using the USP Basket Method I under the same conditions described in the dissolution studies. At various time intervals the tablets were removed from the baskets, the gel layer was scratched and dried at room temperature for at least 24 hours. The gel layer was analyzed by DSC, X-ray powder diffraction and scanning electron microscopy (SEM). Used analytical methods are described in Example 4.
Tablets containing 50% carbamazepine and 50% Methocel K4M were prepared and hydrated in medium containing 1% SDS in water, using tablet dissolution tester at the same conditions used for measurements of the release rate of the drug.
At various time intervals the tablets were removed and the gel layer was peeled, dried at room temperature and analyzed by DSC, X-ray and SEM. For comparison, a suspension containing carbamazepine in 1% SDS water solution was prepared and the crystals obtained were analyzed by DSC, X-ray and SEM.
as §2, §3
Samples of hydrated tablets were sliced across the gel layer. The samples were washed and then treated with increasing concentration of ethanol, 5 minutes at each concentration, for dehydration. […] Scanning electron photomicrographs were recorded using a Philips 505 SEM, applying voltage of […]. Samples of powders were coated and analyzed under the same conditions described for the hydrated tablets.

In the case of `NC(=O)N1c2ccccc2C=Cc2ccccc21` [carbamazepine], the “Degree of conversion of carbamazepine to carbamazepine dihydrate” value in data set [1] (5 mg/ml Methocel K4M, time 1 day) is 0%; in data set [1] (5 mg/ml Methocel K4M, time 2 days), 0.97%; in data set [1] (5 mg/ml Methocel K4M, time 3 days) it was 8.8%; in data set [1] (5 mg/ml Methocel K4M, time 4 days), 21.5%; in data set [1] (5 mg/ml Methocel K4M, time 7 days), 100%; in data set [1] (Methocel K4M 0 mg/ml, 24 hours, 1% SDS, 37° C.) it was 100%. The “Degree of conversion of carbamazepine to carbamazepine dihydrate” value in data set [1] (Methocel K4M 0.5 mg/ml, 24 hours, 1% SDS, 37° C.) is given as 77.0%; in data set [1] (Methocel K4M 1 mg/ml, 24 hours, 1% SDS, 37° C.), 23.1%; in data set [1] (Methocel K4M 2 mg/ml, 24 hours, 1% SDS, 37° C.), 0%; in data set [1] (Methocel K4M 5 mg/ml, 24 hours, 1% SDS, 37° C.) it was 0%; in data set [1] (Methocel K4M 10 mg/ml, 24 hours, 1% SDS, 37° C.) it was 0%. Also, the “Transformation of carbamazepine to dihydrate” value in data set [1] (after 7 days, all examined Methocel K4M concentrations) is given as “transformed completely to dihydrate”. Also, the “Conversion of anhydrous carbamazepine to dihydrate (DSC thermograms)” value in data set [1] (suspended in water, without HPMC) is given as “completely converted to dihydrate”. Moreover, the solubility in data set [2] (0.5% sds in water) turned out to be 1.47 mg/mL (≈ 6.21 mM); in data set [2] (1% sds in water), 3.3 mg/mL (≈ 14 mM). The “X-ray diffraction: crystal form of carbamazepine” value is “mixture of carbamazepine and carbamazepine dihydrate crystals” in data set [3] (1 mg/ml Methocel K4M solution); “solely the anhydrous form” in data set [3] (10 mg/ml Methocel K4M solution). In addition, the “SEM: appearance of carbamazepine crystals from HPMC solutions” value in data set [3] (1, 5 or 10 mg/ml HPMC, 1 and 7 days) is listed as “appear to be amorphous”. Moreover, the “Conversion to carbamazepine dihydrate complete” value in data set [4] was 95%. Moreover, the Solubility in water result in data set [5] was “practically insoluble in water”. In addition, the entries for the “SEM: form of carbamazepine in the gel layer” value in data set [6] (6 hours of hydration) and in data set [6] (20 hours hydration) were “transformed to an amorphous form” and “showed the same behavior”, respectively. Also, the “Transformation of carbamazepine to the dihydrate form in the gel layer” value in data set [6] (hydrated tablets containing 50% polymer, 6 and 20 hours) is reported as “inhibited”.
